Where two headings read alike, the source gives them in different places.
Key:
Type in all cases: in vivo
[1] = tested on: barnyardgrass (Echinochloa crus-galli); experiment: Test A pre-/postemergence plant response; details: Echinochloa crus-galli, 240 h; for pest or weed control at 125 g/ha: 125 g ai/ha; for pest or weed control at 500 g/ha: 500 g ai/ha
In short: (§1)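 Each species was treated preemergence via directed soil spray and postemergence at the one- to two-leaf stage, with compounds formulated in a non-phytotoxic solvent plus surfactant. Visual injury relative to untreated controls was rated after about ten days on a 0–100 scale.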

corn (Zea mays) = experiment: Test A pre-/postemergence plant response; details: Zea mays, 240 h; for Corn plant response rating (crop injury, 0 = no effect, 100 = complete kill) at 500 g/ha: 500 g ai/ha
In short: as §1

[2] = tested on: giant foxtail (Setaria faberii); experiment: Test A pre-/postemergence plant response; details: Setaria faberi, 240 h; for pest or weed control at 125 g/ha: 125 g ai/ha; for pest or weed control at 500 g/ha: 500 g ai/ha
In short: as §1

[3] = tested on: large crabgrass (Digitaria sanguinalis); experiment: Test A pre-/postemergence plant response; details: Digitaria sanguinalis, 240 h; for pest or weed control at 125 g/ha: 125 g ai/ha; for pest or weed control at 500 g/ha: 500 g ai/ha
In short: as §1

[4] = tested on: morningglory (Ipomoea spp.); experiment: Test A pre-/postemergence plant response; details: Ipomoea, 240 h; for pest or weed control at 125 g/ha: 125 g ai/ha; for pest or weed control at 500 g/ha: 500 g ai/ha
In short: as §1

[5] = tested on: pigweed (Amaranthus retroflexus); experiment: Test A pre-/postemergence plant response; details: Amaranthus retroflexus, 240 h, approx. ten days; for pest or weed control at 500 g/ha: 500 g ai/ha, read-out: Plant response rating, Pigweed
In short: as §1

[6] = tested on: velvetleaf (Abutilon theophrasti); experiment: Test A pre-/postemergence plant response; details: Abutilon theophrasti, 240 h; for pest or weed control at 125 g/ha: 125 g ai/ha; for pest or weed control at 500 g/ha: 500 g ai/ha
In short: as §1

[7] = tested on: wheat (Triticum aestivum); experiment: Test A pre-/postemergence plant response; details: Triticum aestivum, 240 h; for plant injury at 125 g/ha: 125 g ai/ha; for plant injury at 500 g/ha: 500 g ai/ha
In short: as §1

[8] = tested on: barnyardgrass (Echinochloa crus-galli); experiment: Test B flooded paddy test; details: Echinochloa crus-galli, 360 h
In short: (§2)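 Each compound is added to standing floodwater (3 cm above soil, maintained) in pots of 2-leaf-stage plants; greenhouse exposure lasts 13–15 d before visual comparison with controls on a 0–100 control scale.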

[9] = tested on: ducksalad (Heteranthera limosa); experiment: Test B flooded paddy test; details: Heteranthera limosa, 360 h
In short: as §2

rice (Oryza sativa) = experiment: Test B flooded paddy test; details: Oryza sativa
In short: as §2

[10] = tested on: umbrella sedge (Cyperus difformis); experiment: Test B flooded paddy test; details: Cyperus difformis, 360 h
In short: as §2

`CCn1ncc(C(=O)c2cnc(-c3ccccc3)n(Cc3ccccc3)c2=O)c1OS(=O)(=O)c1ccc(C)cc1` [Compound 21, 5-[[1-ethyl-5-[[(4-methylphenyl)sulfonyl]oxy]-1H-pyrazol-4-yl]carbonyl]-2-phenyl-3-(phenylmethyl)-4(3H)-pyrimidinone] was tested, and the pest or weed control at 125 g/ha ([1]; post-emergence, Postemergence, visual injury, 0 to 100 scale (0 no effect, 100 complete control), approx. ten days, read-out: Barnyardgrass plant response rating) was 0%, the pest or weed control at 500 g/ha ([1]; post-emergence, Postemergence, 0 to 100 scale, 0 = no effect, 100 = complete control, approx. ten days, read-out: Plant response rating, Barnyardgrass) was 10% and the pest or weed control at 125 g/ha ([1]; pre-emergence, Preemergence, 0 to 100 scale, 0 = no effect, 100 = complete control, read-out: Plant response rating, Barnyardgrass) was 0%. For the same molecule, the pest or weed control at 500 g/ha ([1]; pre-emergence, Preemergence, visual injury, 0 to 100 scale (0 no effect, 100 complete control), approx. ten days, read-out: Plant response rating, Barnyardgrass) was 0%, the plant injury at 125 g/ha (corn (Zea mays); post-emergence, Postemergence, 125 g ai/ha, visual injury, 0 to 100 scale (0 no effect, 100 complete control), approx. ten days, read-out: Corn plant response rating) was 0% and the Corn plant response rating (crop injury, 0 = no effect, 100 = complete kill) at 500 g/ha (corn (Zea mays); post-emergence, Postemergence, 0 to 100 scale, 0 = no effect, 100 = complete control, approx. ten days) was 0%. For the same molecule, the Corn plant response rating (crop injury, 0 = no effect, 100 = complete kill) at 125 g/ha (corn (Zea mays); pre-emergence, Preemergence, 125 g ai/ha, 0 to 100 scale, 0 = no effect, 100 = complete control) was 0%, the Corn plant response rating (crop injury, 0 = no effect, 100 = complete kill) at 500 g/ha (corn (Zea mays); pre-emergence, Preemergence, visual injury, 0 to 100 scale (0 no effect, 100 complete control), approx. ten days) was 0% and the pest or weed control at 125 g/ha ([2]; post-emergence, Postemergence, visual injury, 0 to 100 scale (0 no effect, 100 complete control), approx. ten days, read-out: Foxtail, Giant plant response rating) was 0%. The pest or weed control at 500 g/ha ([2]; post-emergence, Postemergence, 0 to 100 scale, 0 = no effect, 100 = complete control, approx. ten days, read-out: Plant response rating, Foxtail, Giant) was 0%, the pest or weed control at 125 g/ha ([2]; pre-emergence, Preemergence, 0 to 100 scale, 0 = no effect, 100 = complete control, read-out: Plant response rating, Foxtail, Giant) was 0% and the pest or weed control at 500 g/ha ([2]; pre-emergence, Preemergence, visual injury, 0 to 100 scale (0 no effect, 100 complete control), approx. ten days, read-out: Plant response rating, Foxtail, Giant) was 10%. It also gave a pest or weed control at 125 g/ha ([3]; post-emergence, Postemergence, visual injury, 0 to 100 scale (0 no effect, 100 complete control), approx. ten days, read-out: Crabgrass, Large plant response rating) of 0%, a pest or weed control at 500 g/ha ([3]; post-emergence, Postemergence, 0 to 100 scale, 0 = no effect, 100 = complete control, approx. ten days, read-out: Plant response rating, Crabgrass, Large) of 10% and a pest or weed control at 125 g/ha ([3]; pre-emergence, Preemergence, 0 to 100 scale, 0 = no effect, 100 = complete control, read-out: Plant response rating, Crabgrass, Large) of 0%. The pest or weed control at 500 g/ha ([3]; pre-emergence, Preemergence, visual injury, 0 to 100 scale (0 no effect, 100 complete control), approx. ten days, read-out: Plant response rating, Crabgrass, Large) was 20%, the pest or weed control at 125 g/ha ([4]; post-emergence, Postemergence, visual injury, 0 to 100 scale (0 no effect, 100 complete control), approx. ten days, read-out: Morningglory plant response rating) was 0% and the pest or weed control at 500 g/ha ([4]; post-emergence, Postemergence, 0 to 100 scale, 0 = no effect, 100 = complete control, approx. ten days, read-out: Plant response rating, Morningglory) was 0%. The pest or weed control at 125 g/ha ([4]; pre-emergence, Preemergence, 0 to 100 scale, 0 = no effect, 100 = complete control, read-out: Plant response rating, Morningglory) was 0%, the pest or weed control at 500 g/ha ([4]; pre-emergence, Preemergence, visual injury, 0 to 100 scale (0 no effect, 100 complete control), approx. ten days, read-out: Plant response rating, Morningglory) was 0% and the pest or weed control at 125 g/ha ([5]; post-emergence, Postemergence, 125 g ai/ha, visual injury, 0 to 100 scale (0 no effect, 100 complete control), read-out: Pigweed plant response rating) was 0%. The pest or weed control at 500 g/ha ([5]; post-emergence, Postemergence, 0 to 100 scale, 0 = no effect, 100 = complete control) was 50%, the pest or weed control at 500 g/ha ([5]; pre-emergence, Preemergence, visual injury, 0 to 100 scale (0 no effect, 100 complete control)) was 70% and the pest or weed control at 125 g/ha ([6]; post-emergence, Postemergence, visual injury, 0 to 100 scale (0 no effect, 100 complete control), approx. ten days, read-out: Velvetleaf plant response rating) was 30%. The pest or weed control at 500 g/ha ([6]; post-emergence, Postemergence, 0 to 100 scale, 0 = no effect, 100 = complete control, approx. ten days, read-out: Plant response rating, Velvetleaf) was 70%, the pest or weed control at 125 g/ha ([6]; pre-emergence, Preemergence, 0 to 100 scale, 0 = no effect, 100 = complete control, read-out: Plant response rating, Velvetleaf) was 0% and the pest or weed control at 500 g/ha ([6]; pre-emergence, Preemergence, visual injury, 0 to 100 scale (0 no effect, 100 complete control), approx. ten days, read-out: Plant response rating, Velvetleaf) was 0%. For the same molecule, the plant injury at 125 g/ha ([7]; post-emergence, Postemergence, visual injury, 0 to 100 scale (0 no effect, 100 complete control), approx. ten days, read-out: Wheat plant response rating) was 0%, the plant injury at 500 g/ha ([7]; post-emergence, Postemergence, 0 to 100 scale, 0 = no effect, 100 = complete control, approx. ten days, read-out: Plant response rating, Wheat) was 0% and the plant injury at 125 g/ha ([7]; pre-emergence, Preemergence, 0 to 100 scale, 0 = no effect, 100 = complete control, read-out: Plant response rating, Wheat) was 0%. For the same molecule, the plant injury at 500 g/ha ([7]; pre-emergence, Preemergence, visual injury, 0 to 100 scale (0 no effect, 100 complete control), approx. ten days, read-out: Plant response rating, Wheat) was 0%, the pest or weed control at 250 g/ha ([8]; 250 g ai/ha, flooded paddy test, visual rating on 0 to 100 scale (0 no effect, 100 complete control) after 13 to 15 days, read-out: Plant response rating, Flood, Barnyardgrass) was 0% and the pest or weed control at 31 g/ha ([8]; Flood (flooded paddy test), 31 g ai/ha, scale of 0 to 100 where 0 is no effect and 100 is complete control, 13 to 15 days, read-out: Plant response rating, Barnyardgrass) was 0%. The pest or weed control at 62 g/ha ([8]; Flood (flooded paddy test), 62 g ai/ha, scale 0 to 100, 0 is no effect, 100 is complete control, 13 to 15 days, read-out: Plant response rating, Barnyardgrass) was 0%, the pest or weed control at 125 g/ha ([8]; Flood (flooded paddy test), 125 g ai/ha, scale 0 to 100, 0 is no effect, 100 is complete control, 13 to 15 days, read-out: Plant response rating, Barnyardgrass) was 0% and the pest or weed control at 250 g/ha ([9]; 250 g ai/ha, flooded paddy test, visual rating on 0 to 100 scale (0 no effect, 100 complete control) after 13 to 15 days, read-out: Plant response rating, Flood, Ducksalad) was 75%. For the same molecule, the pest or weed control at 31 g/ha ([9]; Flood (flooded paddy test), 31 g ai/ha, scale of 0 to 100 where 0 is no effect and 100 is complete control, 13 to 15 days, read-out: Plant response rating, Ducksalad) was 60%, the pest or weed control at 62 g/ha ([9]; Flood (flooded paddy test), 62 g ai/ha, scale 0 to 100, 0 is no effect, 100 is complete control, 13 to 15 days, read-out: Plant response rating, Ducksalad) was 70% and the pest or weed control at 125 g/ha ([9]; Flood (flooded paddy test), 125 g ai/ha, scale 0 to 100, 0 is no effect, 100 is complete control, 13 to 15 days, read-out: Plant response rating, Ducksalad) was 70%. The plant injury at 250 g/ha (rice (Oryza sativa); 250 g ai/ha, flooded paddy test, visual rating on 0 to 100 scale (0 no effect, 100 complete control) after 13 to 15 days, read-out: Plant response rating, Flood, Rice) was 0%, the plant injury at 31 g/ha (rice (Oryza sativa); Flood (flooded paddy test), 31 g ai/ha, scale of 0 to 100 where 0 is no effect and 100 is complete control, 13 to 15 days, read-out: Plant response rating, Rice) was 0% and the plant injury at 62 g/ha (rice (Oryza sativa); Flood (flooded paddy test), 62 g ai/ha, scale 0 to 100, 0 is no effect, 100 is complete control, 13 to 15 days, read-out: Plant response rating, Rice) was 0%. For the same molecule, the plant injury at 125 g/ha (rice (Oryza sativa); Flood (flooded paddy test), 125 g ai/ha, scale 0 to 100, 0 is no effect, 100 is complete control, 13 to 15 days, read-out: Plant response rating, Rice) was 0%, the pest or weed control at 250 g/ha ([10]; 250 g ai/ha, flooded paddy test, visual rating on 0 to 100 scale (0 no effect, 100 complete control) after 13 to 15 days, read-out: Plant response rating, Flood, Sedge, Umbrella) was 65% and the pest or weed control at 31 g/ha ([10]; Flood (flooded paddy test), 31 g ai/ha, scale of 0 to 100 where 0 is no effect and 100 is complete control, 13 to 15 days, read-out: Plant response rating, Sedge, Umbrella) was 40%. It also gave a pest or weed control at 62 g/ha ([10]; Flood (flooded paddy test), 62 g ai/ha, scale 0 to 100, 0 is no effect, 100 is complete control, 13 to 15 days, read-out: Plant response rating, Sedge, Umbrella) of 50% and a pest or weed control at 125 g/ha ([10]; Flood (flooded paddy test), 125 g ai/ha, scale 0 to 100, 0 is no effect, 100 is complete control, 13 to 15 days, read-out: Plant response rating, Sedge, Umbrella) of 60%.
